Patent publication US11932645B2, “Substituted pyrazolo[1,5-a]pyrimidines and their use in the treatment of medical disorders” (Bial—R&D Investments, S.A., priority 2014, dated 2024)

Biological target: T1, glucocerebrosidase (Gcase) (Homo sapiens, UniProt P04062)
T1 sequence (P04062 40-536): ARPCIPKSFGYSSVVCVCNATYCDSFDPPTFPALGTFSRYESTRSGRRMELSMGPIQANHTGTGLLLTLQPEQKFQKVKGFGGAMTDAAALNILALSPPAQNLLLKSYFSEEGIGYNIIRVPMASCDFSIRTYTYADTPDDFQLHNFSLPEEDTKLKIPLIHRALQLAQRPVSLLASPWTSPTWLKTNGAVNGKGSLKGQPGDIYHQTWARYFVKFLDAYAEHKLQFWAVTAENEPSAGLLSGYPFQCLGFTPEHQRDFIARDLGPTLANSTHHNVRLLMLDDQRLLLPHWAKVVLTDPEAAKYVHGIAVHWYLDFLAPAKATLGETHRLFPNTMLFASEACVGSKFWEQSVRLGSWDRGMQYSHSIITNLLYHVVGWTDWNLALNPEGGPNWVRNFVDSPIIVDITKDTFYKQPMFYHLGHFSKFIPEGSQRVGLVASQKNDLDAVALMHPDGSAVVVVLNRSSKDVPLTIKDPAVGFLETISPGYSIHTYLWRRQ
Assay: Glucocerebrosidase (Gcase) activation assay, 4-methylumbelliferyl-beta-D-glucopyranoside substrate, with saposin C
Type: biochemical
Conditions: 10 nM GCase, 100 nM saposin C, pH 4.7
Description: The ability of exemplary compounds to activate glucocerebrosidase (Gcase) was measured.
A 484 μL aliquot of a 1.0 mg/mL solution of phosphatidylserine (PS) (Sigma P7769) in chloroform was evaporated under a stream of nitrogen for 1 hour. The lipid film was dissolved over 4 minutes of vigorous vortexing in 40 mL of 176 mM K2HPO4/50 mM citric acid (pH 4.7) containing 7.5 μL of triton X-100, resulting in a mixed micellar preparation with a composition of 0.32 mM triton and 0.37 mol % PS. 4-Methylumbelliferyl-beta-D-glucopyranoside (ACROS-337025000) was dissolved in the micellar solution to a final concentration of 2 mM for use as the reaction substrate.
Test compounds were diluted to the desired concentrations with dimethylsulfoxide (DMSO) from 10 mM stocks, and 0.41 μL of the DMSO compound mixture was added to 100 μL of micellar solution containing 10 nM GCase and 100 nM saposin C (Enzo ALX-201-262-C050). Pre-incubation was allowed to occur for 30 minutes at room temperature, after which the reaction was initiated by combining 25 μL of substrate solution with 25 μL of compound/GCase/saposin mixture. The reaction proceeded for 15 minutes at room temperature and was stopped by adding 150 μL of 1M glycine, pH 12.5. The endpoint of the reaction was monitored by measuring fluorescence intensity (excitation: 365 nm; emission: 440 nm) on a SpectraMax i3 instrument (Molecular Devices). Test compounds were screened at 1.0 and 0.1 μM final concentration, and subsequent 8-point dose response curves were obtained using 3-fold dilutions from a maximum final concentration of 5 μM.
For experiments in which the test compound was used at a concentration of 1.0 μM, the symbol “+” indicates less than 30% Gcase activation; the symbol “++” indicates Gcase activation in the range of 30% up to 60%; and the symbol “+++” indicates Gcase activation greater than 60%. For experiments in which the test compound was used at a concentration of 0.1 μM, the symbol “*” indicates less than 10% Gcase activation; the symbol “**” indicates Gcase activation in the range of 10% up to 20%; and the symbol “***” indicates greater than 20% Gcase activation.

| SMILES | Percent Gcase Activation 0.1 μM Test Compound | Percent Gcase Activation 1 μM Test Compound |
| --- | --- | --- |
| Cc1cc(C)n2ncc(CNc3ccc(-c4cocn4)cc3)c2n1 [III-37] | * (less than 10% Gcase activation) | + (less than 30% Gcase activation) |
| Cc1cc(C)n2ncc(C(=O)Nc3ccc(N=[N+]=[N-])cc3)c2n1 [III-38] | * (less than 10% Gcase activation) | ++ (Gcase activation in the range of 30% up to 60%) |
| Cc1cc(C)n2ncc(C(=O)Nc3ccc(-c4cccs4)cc3)c2n1 [III-39] | *** (greater than 20% Gcase activation) | +++ (Gcase activation greater than 60%) |
| Cc1cc(C)n2ncc(C(=O)Nc3ccc4[nH]c(C)cc4c3)c2n1 [III-40] | * (less than 10% Gcase activation) | + (less than 30% Gcase activation) |
| Cc1cc(C)n2ncc(C(=O)Nc3ccc4[nH]ncc4c3)c2n1 [III-41] | * (less than 10% Gcase activation) | + (less than 30% Gcase activation) |
| Cc1cc(C)n2ncc(C(=O)Nc3ccc4cn[nH]c4c3)c2n1 [III-42] | * (less than 10% Gcase activation) | + (less than 30% Gcase activation) |
| Cc1cc(C)n2ncc(C(=O)Nc3ccc4nc(C)oc4c3)c2n1 [III-44] | * (less than 10% Gcase activation) | + (less than 30% Gcase activation) |
| Cc1cc(C)n2ncc(C(=O)Nc3ccc4nc(C)[nH]c4c3)c2n1 [III-45] | * (less than 10% Gcase activation) | + (less than 30% Gcase activation) |
| Cc1cc(C)n2ncc(C(=O)Nc3ccc4c(c3)CCNC4)c2n1 [III-46] | * (less than 10% Gcase activation) | + (less than 30% Gcase activation) |
| Cc1cc(C)n2ncc(C(=O)Nc3ccc4oncc4c3)c2n1 [III-47] | * (less than 10% Gcase activation) | + (less than 30% Gcase activation) |
| Cc1cc(C)n2ncc(C(=O)Nc3ccc4[nH]c(-c5ccco5)nc4c3)c2n1 [III-49] | * (less than 10% Gcase activation) | + (less than 30% Gcase activation) |
| Cc1cc(C)n2ncc(C(=O)Nc3ccc4nc(C)sc4c3)c2n1 [III-50] | * (less than 10% Gcase activation) | ++ (Gcase activation in the range of 30% up to 60%) |
| Cc1cc(C)n2ncc(C(=O)Nc3ccc(Cl)c(COc4cccnc4)c3)c2n1 [III-51] | ** (Gcase activation in the range of 10% up to 20%) | +++ (Gcase activation greater than 60%) |
| Cc1cc(C)n2ncc(C(=O)Nc3ccc(C)c(-c4ncco4)c3)c2n1 [III-52] | ** (Gcase activation in the range of 10% up to 20%) | +++ (Gcase activation greater than 60%) |
| Cc1cc(C)n2ncc(C(=O)Nc3ccc(Cl)c(-c4cnco4)c3)c2n1 [III-53] | ** (Gcase activation in the range of 10% up to 20%) | +++ (Gcase activation greater than 60%) |
| Cc1cc(C)n2ncc(C(=O)Nc3ccc(-c4cnn(C)c4)cc3)c2n1 [III-54] | * (less than 10% Gcase activation) | ++ (Gcase activation in the range of 30% up to 60%) |
| Cc1cc(C)n2ncc(C(=O)Nc3ccc(-c4ccco4)cc3)c2n1 [III-55] | *** (greater than 20% Gcase activation) | +++ (Gcase activation greater than 60%) |
| Cc1cc(C)n2ncc(C(=O)Nc3ccc(-c4ccncc4)cc3)c2n1 [III-56] | * (less than 10% Gcase activation) | + (less than 30% Gcase activation) |

| SMILES | Percent Gcase Activation 0.1 μM Test Compound | Percent Gcase Activation 1 μM Test Compound |
| --- | --- | --- |
| Cc1cc(C)n2ncc(C(=O)NC3CCCc4ccccc43)c2n1 (stereo not shown) [III-58] | *** (greater than 20% Gcase activation) | +++ (Gcase activation greater than 60%) |
| CCCCCO[C@H]1CC[C@H](NC(=O)c2cnn3c(C)cc(C)nc23)CC1 [III-59] | ** (Gcase activation in the range of 10% up to 20%) | +++ (Gcase activation greater than 60%) |
| Cc1cc(C)n2ncc(C(=O)N[C@@H](C)c3ccccc3F)c2n1 [III-60] | * (less than 10% Gcase activation) | +++ (Gcase activation greater than 60%) |
| COc1ccccc1[C@H](C)NC(=O)c1cnn2c(C)cc(C)nc12 [III-61] | ** (Gcase activation in the range of 10% up to 20%) | +++ (Gcase activation greater than 60%) |
| COc1ccccc1[C@@H](C)NC(=O)c1cnn2c(C)cc(C)nc12 [III-62] | * (less than 10% Gcase activation) | +++ (Gcase activation greater than 60%) |
| Cc1cc(C)n2ncc(C(=O)N[C@@H](C)c3cccc(Cl)c3)c2n1 [III-63] | ** (Gcase activation in the range of 10% up to 20%) | +++ (Gcase activation greater than 60%) |
| Cc1cc(C)n2ncc(C(=O)N[C@H](C)c3ccc(Cl)cc3)c2n1 [III-64] | ** (Gcase activation in the range of 10% up to 20%) | +++ (Gcase activation greater than 60%) |
| Cc1cc(C)n2ncc(C(=O)N[C@H](C)c3ccc(F)cc3)c2n1 [III-65] | * (less than 10% Gcase activation) | ++ (Gcase activation in the range of 30% up to 60%) |
| Cc1cc(C)n2ncc(C(=O)NC(C)C3CCC(F)(F)CC3)c2n1 (stereo not shown) [III-66] | * (less than 10% Gcase activation) | + (less than 30% Gcase activation) |
| Cc1cc(C)n2ncc(C(=O)NC(C)(C)c3ccc(Cl)cc3)c2n1 [III-67] | ** (Gcase activation in the range of 10% up to 20%) | +++ (Gcase activation greater than 60%) |
| Cc1cc(Cl)n2ncc(C(=O)NC(C)(C)c3ccc(Cl)cc3)c2n1 [III-68] | ** (Gcase activation in the range of 10% up to 20%) | +++ (Gcase activation greater than 60%) |
| Cc1cc(Cl)nc2c(C(=O)NC(C)(C)c3ccc(Cl)cc3)cnn12 [III-69] | *** (greater than 20% Gcase activation) | +++ (Gcase activation greater than 60%) |
| Cc1cc(C)n2ncc(C(=O)NC(C)(C)c3ccc(F)cc3F)c2n1 [III-70] | ** (Gcase activation in the range of 10% up to 20%) | +++ (Gcase activation greater than 60%) |
| CO[C@H]1CC[C@H](C(C)(C)NC(=O)c2cnn3c(C)cc(C)nc23)CC1 [III-71] | * (less than 10% Gcase activation) | ++ (Gcase activation in the range of 30% up to 60%) |
| CO[C@H]1CC[C@@H](C(C)(C)NC(=O)c2cnn3c(C)cc(C)nc23)CC1 [III-72] | * (less than 10% Gcase activation) | +++ (Gcase activation greater than 60%) |
| Cc1cc(C)n2ncc(C(=O)Nc3ccc4c(c3)C(C3=NCCN3)CCC4)c2n1 (stereo not shown) [III-73] | * (less than 10% Gcase activation) | + (less than 30% Gcase activation) |
| C#Cc1ccc(NCc2cnn3c(C)cc(C)cc23)cc1 [III-74] | * (less than 10% Gcase activation) | + (less than 30% Gcase activation) |
